# In PMC6896172, “Successful Targeting of the Warburg Effect in Prostate Cancer by Glucose-Conjugated 1,4-Naphthoquinones” (Cancers, 2019):
# How the values were obtained:
# [1] = test system: MRC-9 cells; assay: MTT cytotoxicity assay in MRC-9 cells; type: cell-based; conditions: Homo sapiens, MRC9, 48 h of treatment, non-cancer
# Protocol: (§1) Dr. Dr. med. Sonja Loges (University Medical Center Hamburg-Eppendorf, Hamburg, Germany). Cells were cultured according to the manufacturers’ instructions and were recently authenticated by a commercial service (Multiplexion, Heidelberg, Germany). Culture conditions are described in the Supplementary Information.
# (§2) MTT (3-(4,5-dimethylthiazol-2-yl)-2,5-diphenyltetrazolium bromide) cytotoxicity assay was used for the evaluation of cytotoxicity of the compounds or their combinations. Experiments were performed as previously described. In brief, 6000 cells/well were seeded in 96-well plate, incubated overnight, and treated with the drugs in 100 µL/well of 10% FBS/RPMI media containing 2 g/L of D-(+)-glucose for 48 h, unless otherwise stated. For 2 h treatment the cells were treated with the drugs for 2 h in the culture media, then the media was exchanged to fresh drug-free media (100 µL/well) containing MTT reagent and the further steps were performed as previously described.
# [2] = test system: RWPE-1 cells; assay: MTT cytotoxicity assay in RWPE-1 cells; type: cell-based; conditions: Homo sapiens, 48 h of treatment, non-cancer
# Protocol: as §1, §2
# [3] = test system: HEK293 cells; assay: MTT cytotoxicity assay in HEK293 cells; type: cell-based; conditions: Homo sapiens, 48 h of treatment, non-cancer
# Protocol: as §1, §2
# [4] = test system: HUVEC cells; assay: MTT cytotoxicity assay in HUVEC cells; type: cell-based; conditions: Homo sapiens, 48 h of treatment, non-cancer
# Protocol: as §1, §2
# [5] = test system: VCaP cells; assay: MTT cytotoxicity assay in VCaP cells; type: cell-based; conditions: Homo sapiens, 48 h of treatment, cancer
# Protocol: as §1, §2
# [6] = test system: DU145 cells; assay: MTT cytotoxicity assay in DU145 cells; type: cell-based; conditions: Homo sapiens, DU-145, 48 h of treatment, cancer
# Protocol: as §1, §2
# [7] = test system: 22Rv1 cells; assay: MTT cytotoxicity assay in 22Rv1 cells; type: cell-based, human; conditions: for IC50: Homo sapiens
# Protocol: as §1, §2
# [8] = test system: LNCaP cells; assay: MTT cytotoxicity assay in LNCaP cells; type: cell-based; conditions: Homo sapiens, 48 h of treatment, cancer
# Protocol: as §1, §2
# [9] = test system: 22Rv1 cells; assay: Trypan blue exclusion viability assay; type: cell-based; conditions: Homo sapiens, 48 h of treatment
# Protocol: The in vitro effect of the drugs on cell viability and proliferation was evaluated using trypan blue exclusion assay as described before with minor modifications. In brief, cells (0.2 × 10^6 cells/well) were seeded in 12-well plates, incubated overnight, the media was replaced with fresh media (1 mL/well) and treated with the drugs for 48 h. Cells were harvested by trypsination and the viability was measured using trypan blue staining and Beckman Coulter Vi-CELL (Beckman Coulter, Krefeld, Germany).
# [10] = test system: 22Rv1 cells; assay: Mitochondrial membrane potential assay (JC-1, flow cytometry); type: cell-based, human; conditions: 2 h of treatment
# Protocol: The loss of mitochondrial membrane potential (Δψ) was measured by flow cytometry technique using staining with Δψ-sensitive dye JC-1 (5,5′,6,6′-tetrachloro-1,1′,3,3′-tetraethylimidacarbocyanine iodide). Cells were seeded in 12-well plates (100 × 10^3 cells/well in 1 mL/well) and incubated overnight. Then, the media was changed to PBS (1 mL/well) containing the investigational drugs. After 2 h of incubation (37 °C, 5% CO2, in the dark) the cells were trypsinized, pelleted, resuspended in 100 µL of 2 µM JC-1/PBS, incubated for 1 h (37 °C, 5% CO2, in the dark) and Δψ loss was measured by flow cytometry technique.
# [11] = test system: 22Rv1 cells; assay: Colony formation assay; type: cell-based, human; conditions: 22Rv1 cells treated with non-cytotoxic concentrations for 48 h
# Protocol: Colony formation assays were performed as described before. In brief, cells were treated with the drugs for 48 h and then 100 alive cells were plated into each well of 6-well plates and incubated for 10 days. Surviving colonies were fixed, stained with Giemsa solution and counted.
# [12] = test system: 22Rv1 cells; assay: Western blotting of treated cells; type: cell-based, human
# Protocol: (§3) Preparation of protein extracts for western blotting was performed as described previously. In brief, for western blotting, 1 × 10^6 cells/well were seeded in Petri dishes (ø 6 cm TC Dish (Sarstedt, Numbrecht, Germany) in 5 mL/dish), incubated overnight and treated with drugs in 5 mL/dish for an indicated time. Cells were harvested using a cell scraper, pelleted, and resuspended in the lysis buffer containing protease and phosphatase inhibitors. Further sample preparation and western blotting were performed as previously described with slight modifications. Relative optical density of the detected bands was quantified with Quantity One 4.6 software (Bio-Rad, Hercules, CA, USA). The primary and secondary antibodies used are listed in the Supplementary Information.
# [13] = test system: 22Rv1 cells; assay: Cell fractionation followed by Western blotting; type: cell-based, human; conditions: 48 h
# Protocol: as §3
# 22Rv1 cells were seeded in T75 culture bottles (4 × 10^6 cells/bottle in 20 mL/bottle), treated for 48 h and harvested by scratching. The further separation of cytosolic, mitochondrial and nuclear fractions was performed using the Cell Fractionation Kit ab109719 (abcam, Cambridge, MA) as previously described. Mitochondrial and cytosolic fractions were concentrated using Amicon® Ultra-2 Centrifugal Filter device (Cat. No. UFC203024, Merck, Darmstadt, Germany). Nuclear fractions were additionally homogenized using QIAshedder kit (QIAGEN, Hilden, Germany).
compound,measurement,setting,value
CC1(C)OC2OC(C(O)COC3=CC(=O)c4cccc(O)c4C3=O)C(O)C2O1 (stereo not shown) [Compound 11],IC50,[1],3.74 µM
same,IC50,[2],1.48 µM
same,IC50,[3],4.46 µM
same,IC50,[4],4.31 µM
same,IC50,[5],3.11 µM
same,IC50,[6],0.47 µM
same,effect of N-acetyl-L-cysteine pre-treatment on cytotoxic activity,"[7]; 22Rv1 cells, 1 mM NaC 1 h then co-treatment 48 h, FBS- and glucose-free RPMI",significantly suppressed the cytotoxic activity
same,IC50,"[7]; 22Rv1, 48 h of treatment, cancer, read-out: IC50 (22Rv1)",0.71 µM
same,IC50,"[7]; 22Rv1 cells, 2 h treatment, read-out: IC50 after 2 h of treatment",20.4 µM
same,IC50,[8],0.57 µM
same,IC50,[9],2.04 µM
same,effect on ΔΨm,[10],quick ΔΨm loss
same,cancer cell colony formation,[11],suppress cancer cell colony formation
same,cleavage of caspase-9,[12]; 2 h and 48 h treatment,observed already after 2 h
same,ERK1/2 activity,[12]; 2 h treatment,suppressed
same,MEK1/2 alteration,[12]; 2 h treatment,No significant alteration
same,activation of Akt,[12]; 2 h treatment,slight Akt activation
same,activation of p38 and JNK1/2,[12]; 2 h treatment,pronounced activation
same,AR-FL and AR-V7 expression,[12]; 48 h treatment,"downregulated both, AR full length (AR-FL) and AR-V7"
same,Bax and Bcl-2 expression,[12]; 48 h treatment,up-regulation of Bax and down-regulation of Bcl-2
same,LC3B-II and SQSTM1 levels (autophagy markers),"[12]; pre-cytotoxic and cytotoxic concentrations, 48 h","accumulation of both, LC3B-II and SQSTM1"
same,release of mitochondrial proteins AIF and cytochrome C,[13],release of mitochondrial proteins
